Columns and labels:
[1] = tested on: pigweed (Amaranthus retroflexus); experiment: Test A preemergence, visual injury rating 0-100; type: in vivo
[2] = tested on: kochia (Kochia scoparia); experiment: Test A preemergence, visual injury rating 0-100; type: in vivo
[3] = tested on: foxtail, giant (giant foxtail, Setaria faberii); experiment: Test A preemergence, visual injury rating 0-100; type: in vivo
[4] = tested on: ragweed (common ragweed, Ambrosia elatior); experiment: Test A preemergence, visual injury rating 0-100; type: in vivo
[5] = tested on: ryegrass, Italian (Italian ryegrass, Lolium multiflorum); experiment: Test A preemergence, visual injury rating 0-100; type: in vivo
[6] = tested on: barnyardgrass (Echinochloa crus-galli); experiment: Test A preemergence, visual injury rating 0-100 (0 no effect, 100 complete control); type: in vivo
[7] = tested on: barnyardgrass (Echinochloa crus-galli); experiment: Test B flooded paddy test, visual rating 0-100; conditions: Flood, 250 g ai/ha, applied to paddy water, rated after 13 to 15 days
[8] = tested on: galium (catchweed bedstraw, Galium aparine); experiment: Test A postemergence, visual injury rating 0-100; type: in vivo; conditions: 0 to 100 scale
[9] = tested on: pigweed (Amaranthus retroflexus); experiment: Test A postemergence, visual injury rating 0-100; type: in vivo; conditions: 0 to 100 scale
[10] = tested on: kochia (Kochia scoparia); experiment: Test A postemergence, visual injury rating 0-100; type: in vivo; conditions: 0 to 100 scale
[11] = tested on: wheat (Triticum aestivum); experiment: Test A postemergence, visual injury rating 0-100; type: in vivo; conditions: 0 to 100 scale
[12] = tested on: blackgrass (Alopecurus myosuroides); experiment: Test A postemergence, visual injury rating 0-100; type: in vivo; conditions: 0 to 100 scale
[13] = tested on: foxtail, giant (giant foxtail, Setaria faberii); experiment: Test A postemergence, visual injury rating 0-100; type: in vivo; conditions: 0 to 100 scale
[14] = tested on: ragweed (common ragweed, Ambrosia elatior); experiment: Test A postemergence, visual injury rating 0-100; type: in vivo; conditions: 0 to 100 scale
[15] = tested on: barnyardgrass (Echinochloa crus-galli); experiment: Test A postemergence, visual injury rating 0-100; type: in vivo; conditions: 0 to 100 scale
[16] = tested on: ryegrass, Italian (Italian ryegrass, Lolium multiflorum); experiment: Test A postemergence, visual injury rating 0-100; type: in vivo; conditions: 0 to 100 scale
[17] = tested on: corn (Zea mays); experiment: Test A postemergence, visual injury rating 0-100; type: in vivo; conditions: 0 to 100 scale
[18] = tested on: rice (Oryza sativa); experiment: Test B flooded paddy test, visual rating 0-100 (0 no effect, 100 complete control); conditions: Flood, 250 g ai/ha, applied to paddy water, rated after 13 to 15 days
[19] = tested on: ducksalad (Heteranthera limosa); experiment: Test B flooded paddy test, visual rating 0-100; conditions: Flood, 250 g ai/ha, applied to paddy water, rated after 13 to 15 days
[20] = 31 g ai/ha, 0 to 100 scale (0 no effect, 100 complete control), approx. 10 days

| Structure (SMILES) | Pigweed plant response rating (0 to 100 scale) ([1]; 125 g ai/ha) | Kochia plant response rating (0 to 100 scale) ([2]; 125 g ai/ha) | Foxtail, Giant plant response rating (0 to 100 scale) ([3]; 125 g ai/ha) | Ragweed plant response rating (0 to 100 scale) ([4]; 125 g ai/ha) | Ryegrass, Italian plant response rating (0 to 100 scale) ([5]; 125 g ai/ha) | Barnyardgrass plant response rating (0 to 100 scale) ([6]; 125 g ai/ha) | Barnyardgrass plant response rating (0 to 100 scale) [7] | Galium plant response rating ([8]; 125 g ai/ha) | Galium plant response rating ([8]; 500 g ai/ha) | Pigweed plant response rating ([9]; 125 g ai/ha) | Kochia plant response rating ([10]; 125 g ai/ha) | Wheat plant response rating ([11]; 125 g ai/ha) | Blackgrass plant response rating ([12]; 125 g ai/ha) | Foxtail, Giant plant response rating ([13]; 125 g ai/ha) | Ragweed plant response rating ([14]; 125 g ai/ha) | Barnyardgrass plant response rating ([15]; 125 g ai/ha) | Ryegrass, Italian plant response rating ([16]; 125 g ai/ha) | Corn plant response rating ([17]; 125 g ai/ha) | Rice plant response rating (0 to 100 scale) [18] | Ducksalad plant response rating (0 to 100 scale) [19] | other results |
| --- | --- | --- | --- | --- | --- | --- | --- | --- | --- | --- | --- | --- | --- | --- | --- | --- | --- | --- | --- | --- | --- |
| CC1=[N+]([O-])C(C(=O)Nc2cccc(F)c2F)C(c2ccc(F)c(C(F)(F)F)c2)C1 (racemic) [Compound 64] | 50 | 20 | 90 | 0 | 90 | 90 | 60 | 40 | 70 | 0 | 0 | 70 | 80 | 70 | 10 | 70 | 70 | 90 | 0 | 70 | Pigweed plant response rating (0 to 100 scale) ([1]; 500 g ai/ha): 80; Kochia plant response rating (0 to 100 scale) ([2]; 500 g ai/ha): 80; Foxtail, Giant plant response rating (0 to 100 scale) ([3]; 500 g ai/ha): 90; Ragweed plant response rating (0 to 100 scale) ([4]; 500 g ai/ha): 70; Ryegrass, Italian plant response rating (0 to 100 scale) ([5]; 500 g ai/ha): 90; Barnyardgrass plant response rating (0 to 100 scale) ([6]; 500 g ai/ha): 90; Pigweed plant response rating ([9]; 500 g ai/ha): 50; Kochia plant response rating ([10]; 500 g ai/ha): 30; Wheat plant response rating ([11]; 500 g ai/ha): 90; Blackgrass plant response rating ([12]; 500 g ai/ha): 80; Foxtail, Giant plant response rating ([13]; 500 g ai/ha): 90; Ragweed plant response rating ([14]; 500 g ai/ha): 40; Barnyardgrass plant response rating ([15]; 500 g ai/ha): 90; Ryegrass, Italian plant response rating ([16]; 500 g ai/ha): 80; Corn plant response rating ([17]; 500 g ai/ha): 90 |
| CC1=[N+]([O-])C(C(=O)Nc2cccc(F)c2F)C(c2cccc(C(C)C)c2)C1 (racemic) [Compound 12] | 0 | 0 | 100 | 0 | 0 | 100 | 70 | 50 | 70 | 0 | 0 | 20 | 0 | 90 | 0 | 10 | 0 | 50 | 0 | 80 | Pigweed plant response rating ([1]; 500 g ai/ha, 0 to 100 scale): 30; Kochia plant response rating ([2]; 500 g ai/ha, 0 to 100 scale): 50; Foxtail, Giant plant response rating ([3]; 500 g ai/ha, 0 to 100 scale): 100; Ragweed plant response rating ([4]; 500 g ai/ha, 0 to 100 scale): 90; Ryegrass, Italian plant response rating ([5]; 500 g ai/ha, 0 to 100 scale): 90; Barnyardgrass plant response rating ([6]; 500 g ai/ha, 0 to 100 scale): 100; Pigweed plant response rating ([9]; 500 g ai/ha): 20; Kochia plant response rating ([10]; 500 g ai/ha): 30; Wheat plant response rating ([11]; 500 g ai/ha): 70; Blackgrass plant response rating ([12]; 500 g ai/ha): 50; Foxtail, Giant plant response rating ([13]; 500 g ai/ha): 90; Ragweed plant response rating ([14]; 500 g ai/ha): 40; Barnyardgrass plant response rating ([15]; 500 g ai/ha): 90; Ryegrass, Italian plant response rating ([16]; 500 g ai/ha): 50; Corn plant response rating ([17]; 500 g ai/ha): 90 |
| CC1=[N+]([O-])[C@@H](C(=O)Nc2cccc(F)c2F)[C@H](c2cccc(OC(C)C)c2)C1 [Compound 55] | 0 | 0 | 90 | 0 | 80 | 90 | 70 | 30 | – | 0 | 0 | 30 | 80 | 80 | 0 | 60 | 70 | 0 | 0 | 100 | Pigweed plant response rating [1, 20]: 0; Kochia plant response rating [2, 20]: 0; Foxtail, Giant plant response rating [3, 20]: 70; Ragweed plant response rating [4, 20]: 0; Ryegrass, Italian plant response rating [5, 20]: 0; Barnyardgrass plant response rating [6, 20]: 90; Galium plant response rating ([8]; 31 g ai/ha): 0; Pigweed plant response rating ([9]; 31 g ai/ha): 0; Kochia plant response rating ([10]; 31 g ai/ha): 0; Wheat plant response rating ([11]; 31 g ai/ha): 0; Blackgrass plant response rating ([12]; 31 g ai/ha): 0; Foxtail, Giant plant response rating ([13]; 31 g ai/ha): 10; Ragweed plant response rating ([14]; 31 g ai/ha): 0; Barnyardgrass plant response rating ([15]; 31 g ai/ha): 20; Ryegrass, Italian plant response rating ([16]; 31 g ai/ha): 50; Corn plant response rating ([17]; 31 g ai/ha): 0 |
